The text below walks through data of patent US12201691B2, “Core-shell structure, preparation, medicine for external application, tape agent and cosmetic product” (SEKISUI CHEMICAL CO., LTD., priority 2017, dated 2025).

As usually defined, the logD is lipophilicity at a set pH, counting ionised and neutral species. The low end stands for lower lipophilicity, the high end for higher lipophilicity.

Data set [1] in a line: Octanol/water partition coefficient. The note with it: Log10(concentration in octanol phase/concentration in aqueous phase), aqueous buffer of pH 7. Type of data set: physicochemical. Here is the method:
Note that, in the present invention, the octanol/water partition coefficient is determined based on active ingredient concentration of each phase obtained by adding an active ingredient to a flask containing octanol and an aqueous buffer of pH 7, shaking the flask, and then determining the concentration. Specifically, the partition coefficient can be determined by calculation using an equation: Octanol/water partition coefficient=Log10(concentration in an octanol phase/concentration in an aqueous phase).

In another data set the test system is dorsal skin of a rabbit. Description: Primary irritation index of active ingredients (4% by weight in Plastibase). To be noted: active ingredient 4% by weight in Plastibase, Draize scores at 24 and 72 hours. It is filed as in vivo. How it is done: Low skin irritation means having a primary irritation index (P.I.I.) of 5 or less. Note that, the primary irritation index can be measured by a method described below.
An active ingredient is added to an ointment base Plastibase (manufactured by Taisho Pharmaceutical Co., Ltd.) such that its content reaches 4% by weight based on the total weight, mixed, and dispersed therein to produce a formulation.
The dorsal skin of a rabbit is shaved with an electric clipper (with an electric shaver as required). Healthy skin at two points on either side of the dorsal mid-line of the dorsal skin, that is, at four points in total, is used as administration sites. Next, the formulation prepared is taken with a spatula and spread evenly on pieces of lint each having a size of 2 cm×2 cm, and the pieces are attached onto the administration sites. The lint pieces are fixed by covering with a non-woven adhesive bandage (manufactured by Nichiban Co., Ltd., MESHPORE, No. 50). Then, the administration sites are altogether wrapped with gauze and then sealed by covering with an adhesive cloth elastic bandage (manufactured by Nichiban Co., Ltd., ELASTPORE, No. 100).
Specifically, individual skin reaction scores (sum of erythema and eschar formation and edema formation) at the administration sites of each rabbit are calculated for each administration specimen at each observation time. […] Specifically, the following equations (1) and (2) are used for the calculation.

Structures can show the parent of a compound that is named as a salt.

In turn, `NC(=O)CC[C@@H]1NC(=O)[C@H](Cc2ccccc2)NC(=O)[C@H](Cc2ccc(O)cc2)NC(=O)[C@@H](N)CSSC[C@@H](C(=O)N2CCC[C@H]2C(=O)N[C@@H](CCCN=C(N)N)C(=O)NCC(N)=O)NC(=O)[C@H](CC(N)=O)NC1=O` [[Arg-8]-Vasopressin] returned a logD in data set [1] of -4.8.
For the compound `CC(C(=O)O)c1ccc(CC2CCCC2=O)cc1` (stereo not drawn) [loxoprofen sodium dihydrate], in the data set with dorsal skin of a rabbit, the “primary irritation index (P.I.I.)” value worked out at 0.3. In data set [1], this compound gave a log distribution coefficient (logD) of 0.8.
With `CC12CC3CC(C)(C1)CC(N)(C3)C2` [memantine hydrochloride], in the data set with dorsal skin of a rabbit, the “primary irritation index (P.I.I.)” value was 2.5.
On to `CCN(C)C(=O)Oc1cccc([C@H](C)N(C)C)c1` [rivastigmine], for which the “primary irritation index (P.I.I.)” value in the data set with dorsal skin of a rabbit came out at 0.5.
Compound `CCCc1nc(C)c2c(=O)[nH]c(-c3cc(S(=O)(=O)N4CCN(CC)CC4)ccc3OCC)nn12` [vardenafil hydrochloride hydrate] showed an octanol/water partition coefficient in data set [1] of 0.0.
